Where a name gives a salt, the structure may show the parent alone. Read-outs that look alike come from different tables or passages of the source.
Assays:
Format in all cases: biochemical
[1] = molecular target: T1, Human VAP-1 (Homo sapiens, UniProt Q16853); assay: VAP-1 inhibition assay (Amplex Red continuous fluorescence assay)
T1 sequence (Q16853 1-763): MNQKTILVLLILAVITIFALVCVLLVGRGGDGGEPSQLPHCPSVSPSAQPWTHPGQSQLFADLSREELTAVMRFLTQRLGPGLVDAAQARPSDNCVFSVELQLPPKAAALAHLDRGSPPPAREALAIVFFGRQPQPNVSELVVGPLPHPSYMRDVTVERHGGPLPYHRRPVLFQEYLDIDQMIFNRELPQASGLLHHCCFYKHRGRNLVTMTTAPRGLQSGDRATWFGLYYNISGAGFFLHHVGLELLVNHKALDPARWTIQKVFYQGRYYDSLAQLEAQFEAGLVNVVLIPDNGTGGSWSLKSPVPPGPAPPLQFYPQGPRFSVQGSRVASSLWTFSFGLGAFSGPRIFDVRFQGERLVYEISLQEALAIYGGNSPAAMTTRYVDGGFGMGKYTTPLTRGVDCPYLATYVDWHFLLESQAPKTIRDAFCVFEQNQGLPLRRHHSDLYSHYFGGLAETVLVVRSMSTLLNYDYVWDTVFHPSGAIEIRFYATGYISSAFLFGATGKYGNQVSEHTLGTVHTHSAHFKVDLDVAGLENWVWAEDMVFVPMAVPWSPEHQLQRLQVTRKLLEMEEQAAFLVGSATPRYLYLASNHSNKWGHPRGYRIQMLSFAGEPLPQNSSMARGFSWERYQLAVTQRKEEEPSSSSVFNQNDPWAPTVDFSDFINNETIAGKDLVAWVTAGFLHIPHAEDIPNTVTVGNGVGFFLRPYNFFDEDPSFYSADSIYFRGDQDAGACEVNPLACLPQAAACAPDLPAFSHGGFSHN
Method in brief: (§1)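 Continuous Amplex Red/HRP fluorescence read of H2O2 (ex/em 510/565 nm, 5 min). Substrates and buffers: VAP-1 benzylamine, […] sodium phosphate pH 7.4, 30 min 37° C preincubation; MAO-A tyramine and MAO-B benzylamine, same buffer, room temp; DAO histamine, 50 mM HEPES pH 7.5, room temp. IC50 from 4-parameter fit of rates.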

[2] = molecular target: T2, Human MAO-A (Homo sapiens, UniProt P21397); assay: MAO-A inhibition (Amplex Red continuous fluorescence assay)
T2 sequence (P21397 1-527): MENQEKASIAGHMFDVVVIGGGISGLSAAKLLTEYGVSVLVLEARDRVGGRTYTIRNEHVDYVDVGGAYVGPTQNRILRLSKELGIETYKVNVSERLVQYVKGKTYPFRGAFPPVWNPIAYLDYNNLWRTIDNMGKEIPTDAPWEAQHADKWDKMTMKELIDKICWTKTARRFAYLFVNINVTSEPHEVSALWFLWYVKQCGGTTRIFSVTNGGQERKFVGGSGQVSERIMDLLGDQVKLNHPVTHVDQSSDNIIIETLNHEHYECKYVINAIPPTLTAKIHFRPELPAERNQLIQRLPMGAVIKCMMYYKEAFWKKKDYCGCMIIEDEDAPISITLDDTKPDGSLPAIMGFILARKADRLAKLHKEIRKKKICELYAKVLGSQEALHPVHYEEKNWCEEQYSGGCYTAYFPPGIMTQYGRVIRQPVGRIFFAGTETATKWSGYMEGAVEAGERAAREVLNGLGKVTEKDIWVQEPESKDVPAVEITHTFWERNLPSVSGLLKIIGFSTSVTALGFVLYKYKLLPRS
Method in brief: as §1

[3] = molecular target: T3, Human MAO-B (Homo sapiens, UniProt P27338); assay: MAO-B inhibition (Amplex Red continuous fluorescence assay)
T3 sequence (P27338 1-520): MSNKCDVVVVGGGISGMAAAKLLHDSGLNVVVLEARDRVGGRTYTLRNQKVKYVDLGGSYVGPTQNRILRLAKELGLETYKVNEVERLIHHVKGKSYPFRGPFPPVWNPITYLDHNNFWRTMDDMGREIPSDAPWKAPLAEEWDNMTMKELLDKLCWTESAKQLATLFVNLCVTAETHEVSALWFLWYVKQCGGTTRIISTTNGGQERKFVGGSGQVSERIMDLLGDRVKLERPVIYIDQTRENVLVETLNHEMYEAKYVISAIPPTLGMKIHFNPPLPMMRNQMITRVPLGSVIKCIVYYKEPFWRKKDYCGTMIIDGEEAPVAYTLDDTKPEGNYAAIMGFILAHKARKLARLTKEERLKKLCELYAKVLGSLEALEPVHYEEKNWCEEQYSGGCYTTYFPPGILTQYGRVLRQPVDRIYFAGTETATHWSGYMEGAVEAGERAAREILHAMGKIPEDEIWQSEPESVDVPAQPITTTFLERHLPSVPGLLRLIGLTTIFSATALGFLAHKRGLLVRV
Method in brief: as §1

[4] = molecular target: T4, Human DAO (Homo sapiens, UniProt P19801); assay: DAO inhibition (Amplex Red continuous fluorescence assay)
T4 sequence (P19801 20-751): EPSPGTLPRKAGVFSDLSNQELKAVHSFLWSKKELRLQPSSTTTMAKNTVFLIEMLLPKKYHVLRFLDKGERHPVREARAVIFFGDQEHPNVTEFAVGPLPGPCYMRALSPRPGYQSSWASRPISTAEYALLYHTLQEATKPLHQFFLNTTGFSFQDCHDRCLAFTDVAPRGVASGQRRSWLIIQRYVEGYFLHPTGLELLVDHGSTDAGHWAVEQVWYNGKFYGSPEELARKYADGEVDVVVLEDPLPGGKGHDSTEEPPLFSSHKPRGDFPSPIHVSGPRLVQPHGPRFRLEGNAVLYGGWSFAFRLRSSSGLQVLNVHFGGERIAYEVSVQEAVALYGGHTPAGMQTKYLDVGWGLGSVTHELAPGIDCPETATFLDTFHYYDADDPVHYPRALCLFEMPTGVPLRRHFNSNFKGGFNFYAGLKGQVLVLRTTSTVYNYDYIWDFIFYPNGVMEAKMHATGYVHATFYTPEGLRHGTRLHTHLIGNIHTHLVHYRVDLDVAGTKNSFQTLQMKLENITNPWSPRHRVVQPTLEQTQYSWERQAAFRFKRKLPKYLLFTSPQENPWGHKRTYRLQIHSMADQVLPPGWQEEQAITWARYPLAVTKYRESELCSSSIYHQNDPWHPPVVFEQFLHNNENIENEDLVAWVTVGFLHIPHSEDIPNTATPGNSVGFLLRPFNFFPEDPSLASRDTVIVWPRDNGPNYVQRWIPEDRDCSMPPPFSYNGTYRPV
Method in brief: as §1

[5] = 30 min pre-incubation at 37° C., substrate benzylamine, read-out: Human VAP-1 IC50
[6] = 30 min pre-incubation at room temp, substrate tyramine, read-out: Human MAO-A IC50
[7] = 30 min pre-incubation at room temp, substrate benzylamine, read-out: Human MAO-B IC50
[8] = 30 min pre-incubation at room temp, substrate histamine, read-out: Human DAO IC50

| IC50 [1, 5] | IC50 [2, 6] | IC50 [3, 7] | IC50 [4, 8] | SMILES | IC50 [1] | IC50 [2] | IC50 [3] | IC50 [4] |
| --- | --- | --- | --- | --- | --- | --- | --- | --- |
| < 3 µM | > 10 µM | > 10 µM | < 3 µM | NC/C(=C/F)COc1ccc(-c2ncc[nH]2)cc1 [Compound 63, (Z)-2-((4-(1H-imidazol-2-yl)phenoxy)methyl)-3-fluoroprop-2-en-1-amine] |  |  |  |  |
| < 3 µM | > 10 µM | 3 to 10 µM | < 3 µM | NC/C(=C\F)COc1cnc(N2CC[C@H](O)C2)nc1 [Compound 79] |  |  |  |  |
| < 3 µM | 3 to 10 µM | < 3 µM | < 3 µM | NC/C(=C\F)COc1ccc(-c2ncn[nH]2)cc1 [Compound 64, (E)-2-((4-(1H-1,2,4-triazol-5-yl)phenoxy)methyl)-3-fluoroprop-2-en-1-amine] |  |  |  |  |
| < 3 µM | 3 to 10 µM | < 3 µM | 3 to 10 µM | CCC(=O)Nc1ccc(OC/C(=C/F)CN)cc1 [Compound 82, (E)-N-(4-((2-(aminomethyl)-3-fluoroalkyl)oxy)phenyl)propionamide] |  |  |  |  |
| < 3 µM | > 10 µM | > 10 µM | < 3 µM | CO[C@H]1CCN(c2ncc(OC/C(=C/F)CN)cn2)C1 [Compound 81] |  |  |  |  |
| < 3 µM | < 3 µM | < 3 µM | < 3 µM | NC/C(=C/F)COC(=O)Nc1ccccc1 [Compound 68, (Z)-2-(aminomethyl)-3-fluoroalkyl phenylcarbamate] |  |  |  |  |
| < 3 µM | > 10 µM | > 10 µM | < 3 µM | NC/C(=C\F)CN1CCc2ccccc21 [Compound 62, (E)-3-fluoro-2-(indolin-1-ylmethyl)prop-2-en-1-amine hydrochloride] |  |  |  |  |

Continued, compound first:

| SMILES | IC50 [1, 5] | IC50 [2, 6] | IC50 [3, 7] | IC50 [4, 8] | IC50 [1] | IC50 [2] | IC50 [3] | IC50 [4] |
| --- | --- | --- | --- | --- | --- | --- | --- | --- |
| CC(C)(C)NC(=O)c1cn(CC(=CF)CN)c2ccccc12 [Compound 70, 1-(2-(aminomethyl)-3-fluoroalkyl)-N-(tert-butyl)-1H-indole-3-carboxamide] | < 3 µM | < 3 µM | > 10 µM | > 10 µM |  |  |  |  |
| NC/C(=C/F)COc1ccc(-c2nc3ccccc3[nH]2)cc1 [Compound 11, (Z)-2-((4-(1H-benzo[d]imidazol-2-yl)phenoxy)methyl)-3-fluoroprop-2-en-1-amine hydrochloride] | < 3 µM | < 3 µM | < 3 µM | < 3 µM |  |  |  |  |
| NC/C(=C\F)COc1ccc(-c2nc3ccccc3[nH]2)cc1 [Compound 10, (E)-2-((4-(1H-benzo[d]imidazol-2-yl)phenoxy)methyl)-3-fluoroprop-2-en-1-amine hydrochloride] | < 3 µM | > 10 µM | < 3 µM | < 3 µM |  |  |  |  |
| CCNC(=O)Oc1ccc(OC/C(=C/F)CN)cc1 [Compound 55, (E)-4-((2-(aminomethyl)-3-fluoroalkyl)oxy)phenyl ethylcarbamate] | < 3 µM | < 3 µM | < 3 µM | > 10 µM |  |  |  |  |
| CC(C)(C)NC(=O)c1ccc(NC/C(=C/F)CN)cc1 [Compound 45, (E)-4-((2-(aminomethyl)-3-fluoroalkyl)amino)-n-(tert-butyl)benzamide hydrochloride] | < 3 µM | > 10 µM | < 3 µM | > 10 µM |  |  |  |  |
| Cn1ccc(-c2ccc(OC/C(=C\F)CN)cc2)n1 [Compound 54, (Z)-3-fluoro-2-((4-(1-methyl-1H-pyrazol-3-yl)phenoxy)methyl)prop-2-en-1-amine hydrochloride] | < 3 µM | 3 to 10 µM | < 3 µM | < 3 µM |  |  |  |  |
| CC(C)(C)NC(=O)c1ccc2c(ccn2C/C(=C/F)CN)c1 [Compound 59, (E)-1-(2-(aminomethyl)-3-fluoroalkyl)-N-(tert-butyl)-1H-indole-5-carboxamide] | < 3 µM | > 10 µM | < 3 µM | > 10 µM |  |  |  |  |
| NC/C(=C\F)COc1ccc(-c2ncco2)cc1 [Compound 25, (E)-3-fluoro-2-((4-(oxazol-2-yl)phenoxy)methyl)prop-2-en-1-amine hydrochloride] | < 3 µM | 3 to 10 µM | < 3 µM | < 3 µM |  |  |  |  |
| NC/C(=C\F)CNC(=O)Oc1ccccc1 [Compound 47, phenyl (E)-(2-(aminomethyl)-3-fluoroalkyl)carbamate hydrochloride] |  |  |  |  | < 3 µM | < 3 µM | > 10 µM | > 10 µM |
| NC/C(=C/F)COc1ccc(-c2cocn2)cc1 [Compound 30, (Z)-3-fluoro-2-((4-(oxazol-4-yl)phenoxy)methyl)prop-2-en-1-amine hydrochloride] | < 3 µM | < 3 µM | < 3 µM | < 3 µM |  |  |  |  |
| NC/C(=C\F)COc1cccc2c1OCO2 [Compound 14, (E)-2-((benzo[d][1,3]dioxol-4-yloxy)methyl)-3-fluoroprop-2-en-1-amine hydrochloride] | < 3 µM | < 3 µM | < 3 µM | 3 to 10 µM |  |  |  |  |
| NC/C(=C/F)COc1ccc(-c2ncco2)cc1 [Compound 53, (Z)-3-fluoro-2-((4-(oxazol-2-yl)phenoxy)methyl)prop-2-en-1-amine hydrochloride] | < 3 µM | 3 to 10 µM | < 3 µM | < 3 µM |  |  |  |  |
| NC/C(=C/F)COCc1ccccc1 [Compound 6, (Z)-2-((benzyloxy)methyl)-3-fluoroprop-2-en-1-amine hydrochloride] | < 3 µM | < 3 µM | < 3 µM | 3 to 10 µM |  |  |  |  |
| NC/C(=C\F)COc1ccc(-c2ncc[nH]2)cc1 [Compound 4, (E)-2-((4-(1H-imidazol-2-yl)phenoxy)methyl)-3-fluoroprop-2-en-1-amine] | < 3 µM | > 10 µM | > 10 µM | < 3 µM |  |  |  |  |
